Key:
[1] = biological target: T1, topo I-DNA covalent complexes (Homo sapiens, UniProt P11387); experiment: In vivo complexing of enzyme (ICE) assay with immunoblotting, A549 cells; format: cell-based; conditions: 10 μM drug, 60 minutes
T1 construct: separate topo I-DNA covalent complexes from free topo I in A549 cell lysates; endogenous in cells; host or cells: A549
T1 sequence (P11387 1-765): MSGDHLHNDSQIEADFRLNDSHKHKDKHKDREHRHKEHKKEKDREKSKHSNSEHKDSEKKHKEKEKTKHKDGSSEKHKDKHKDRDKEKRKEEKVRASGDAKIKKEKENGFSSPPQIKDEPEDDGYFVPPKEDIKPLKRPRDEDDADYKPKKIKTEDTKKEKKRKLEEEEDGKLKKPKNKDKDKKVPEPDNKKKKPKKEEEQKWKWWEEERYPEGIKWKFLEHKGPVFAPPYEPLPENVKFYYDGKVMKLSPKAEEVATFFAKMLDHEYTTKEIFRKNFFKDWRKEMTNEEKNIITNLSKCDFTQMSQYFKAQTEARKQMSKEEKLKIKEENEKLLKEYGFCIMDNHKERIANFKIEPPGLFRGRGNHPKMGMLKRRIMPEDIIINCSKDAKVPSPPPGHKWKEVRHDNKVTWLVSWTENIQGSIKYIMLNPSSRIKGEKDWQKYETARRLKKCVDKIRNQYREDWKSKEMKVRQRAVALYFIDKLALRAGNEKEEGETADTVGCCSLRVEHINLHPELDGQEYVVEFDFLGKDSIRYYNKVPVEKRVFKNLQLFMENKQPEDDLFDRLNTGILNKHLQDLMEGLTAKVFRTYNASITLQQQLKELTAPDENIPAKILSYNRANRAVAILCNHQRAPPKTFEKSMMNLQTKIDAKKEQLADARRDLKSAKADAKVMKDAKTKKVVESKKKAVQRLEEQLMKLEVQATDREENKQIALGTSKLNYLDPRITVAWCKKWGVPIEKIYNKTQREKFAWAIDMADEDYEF
Experimental: ICE assays were performed as described elsewhere (Subramanian et al., ICE Bioassay; DNA Topoisomerase Protocols: Volume II: Enzymology and Drugs, 2001, pp 137-147; and Gálvez-Peralta et al., Bioorganic & Medicinal Chemistry Letters, 19:4459-4462 (2009)). Briefly, A549 cells grown to 40-60% confluence in 100 mm tissue culture dishes were treated for 60 minutes with 0.1% (v/v) DMSO, 10 μM TPT, or 10 μM etoposide in serum-free RPMI containing 10 mM HEPES, pH 7.4 (medium B). At the end of the incubation, the medium was aspirated, and the cells were rapidly lysed in 1 mL lysis buffer consisting of 1% (w/v) sarkosyl, 10 mM Tris-HCl (pH 8.0 at 20-22° C.) and 1 mM EDTA. Lysate was layered on a cesium chloride gradient and ultracentrifuged at 125,000 g for 21 hours at 20° C. After centrifuge tubes were perforated at the bottom with a 23-gauge needle, 0.5 mL fractions were collected, assayed for the presence of DNA (detectable in fractions 1-4), and slot-blotted onto nitrocellulose membranes. Membranes were then blocked in 5% (w/v) milk in […] NaCl containing 10 mM Tris-HCl (pH 7.4 at 20-22° C.) for 2 hours and incubated in either C-21 anti-topo I IgM antibody (obtained from Y.-C. Cheng; Yale University; New Haven, Conn.) or the α-TopoI cc antibody (diluted to 1 μg/mL in blocking buffer). Western blotting was performed as described elsewhere (Kaufmann, Anal. Biochem., 296:283-286 (2001)).

[2] = biological target: T1, topo I-DNA covalent complexes; experiment: Immunofluorescence (confocal microscopy) in A549 cells; format: cell-based
Experimental: Immunofluorescence studies in A549 cells were performed as described elsewhere (Segovis et al., J. Immunol., 182:6933-6942 (2009)) with several modifications. After cells grown on nitric acid-etched coverslips were treated for 1 hour with TPT in medium B, coverslips were fixed in 2% (w/v) paraformaldehyde in calcium- and magnesium-free Dulbecco's phosphate buffered saline (PBS) for 10 minutes at room temperature, washed with PBS, and permeabilized with 0.25% (v/v) Triton X-100 in PBS for 5 minutes. To denature DNA-protein crosslinks, the coverslips were incubated in 1% SDS for 5 minutes (Brown et al., Histochem. Cell Biol., 105:261-267 (1996)), washed three times with PBS, and incubated in a blocking buffer consisting of PBS, 1% (v/v) glycerol, 0.1% glycerol from cold water fish, 5% (v/v) normal goat serum, 0.1% (w/v) BSA, and 0.4% (w/v) sodium azide. Coverslips were incubated overnight in primary antibody, followed by staining with Alexa Fluor 488-, 568-, or 647-conjugated secondary antibody (Invitrogen) diluted at a ratio of 1:1000. α-TopoI cc antibody was used at 1.2 μg/mL, and α-Topo I human IgG (Topogen; Port Orange, Fla.) was used at 1:1000. […] Quantitation and image processing were performed using the Zeiss Zen software package and Adobe Photoshop CS3.

[3] = biological target: T1, topo I-DNA covalent complexes; experiment: Band depletion assay, A549 cells (SDS-PAGE immunoblot and slot blot); format: cell-based; conditions: increasing TPT concentrations up to 100 μM, 60 minutes
Experimental: Band depletion assays were performed as described elsewhere (Kaufmann and […], Methods Mol. Biol., 94:253-268 (1999)). A549 cells grown in 100 mm culture dishes to 40-60% confluence were treated with increasing concentrations of TPT in medium B for 60 minutes. After treatment, cells were immediately solubilized in 6 M guanidine hydrochloride containing 250 mM Tris-HCl (pH 8.5 at 20° C.), 10 mM EDTA, 1% (v/v) 2-mercaptoethanol, and 1 mM freshly added phenylmethylsulfonyl fluoride. After preparation, for electrophoresis as described elsewhere (Kaufmann et al., Blood, 89:2098-2104 (1997), aliquots containing […] of protein (determined by the bicinchoninic acid method (Smith et al., Anal. Biochem., 150:76-85 (1985)) were either slot blotted for immunoblotting with α-TopoI cc antibody or separated on SDS-polyacrylamide gels, eletrophoretically transferred to nitrocellulose, and probed with C-21 anti-Topo I or, as a loading control anti-Hsp90 mouse (obtained from D. O. Toft; Mayo Clinic; Rochester, Minn.).

[4] = test system: topo I-DNA covalent complexes; experiment: Flow cytometry, P388/CPT cells (lack detectable topo I); format: cell-based, mouse; conditions: 2 μM TPT
Experimental: (§1) A549 and K562 cells were stained using a modified protocol of a protocol described elsewhere (Muslimovic et al., Nat. Protoc., 3:1187-1193 (2008)). After 10^6 cells were treated for 1 hour with TPT in medium B, samples were centrifuged at 300 g for 5 minutes. Cells were then partially lysed for 1 minute in 100 μL extraction buffer, which consisted of 25 mM Tris-HCl (pH 7.5 at 20-22° C.), 1% (w/v) Triton X-100, 1 mM EDTA, 0.01% (w/v) BSA, and 0.2% (w/v) paraformaldehyde then fixed for 10 minutes at 20-22° C. by addition of 1 mL 2% (w/v) paraformaldehyde in PBS. Nuclei were pelleted and incubated for 60 minutes in 100 μL blocking buffer with primary antibody (1 μg/mL for A549 and P388 cells; and 5 μg/mL for K562 cells). Nuclei were washed by addition of 2 mL PBS, pelleted, and incubated for 30 minutes in 100 μL blocking buffer with 1 μg/mL Alexa Fluor 647-conjugated goat anti-mouse IgG (Invitrogen). Nuclei were washed by addition of 2 mL PBS, pelleted, and immediately analyzed on a FACSCanto II flow cytometer (BD Biosciences; San Jose, Calif.) on the APC channel (excitation: 633 nm; emission: 660/20 nm).

[5] = biological target: T2, topo I-DNA covalent complexes (Mus musculus, UniProt Q04750); experiment: Flow cytometry, wild-type P388 cells; format: cell-based; conditions: 2 μM TPT
T2 construct: endogenous in cells; host or cells: P388 (wild type)
T2 sequence (Q04750 1-767): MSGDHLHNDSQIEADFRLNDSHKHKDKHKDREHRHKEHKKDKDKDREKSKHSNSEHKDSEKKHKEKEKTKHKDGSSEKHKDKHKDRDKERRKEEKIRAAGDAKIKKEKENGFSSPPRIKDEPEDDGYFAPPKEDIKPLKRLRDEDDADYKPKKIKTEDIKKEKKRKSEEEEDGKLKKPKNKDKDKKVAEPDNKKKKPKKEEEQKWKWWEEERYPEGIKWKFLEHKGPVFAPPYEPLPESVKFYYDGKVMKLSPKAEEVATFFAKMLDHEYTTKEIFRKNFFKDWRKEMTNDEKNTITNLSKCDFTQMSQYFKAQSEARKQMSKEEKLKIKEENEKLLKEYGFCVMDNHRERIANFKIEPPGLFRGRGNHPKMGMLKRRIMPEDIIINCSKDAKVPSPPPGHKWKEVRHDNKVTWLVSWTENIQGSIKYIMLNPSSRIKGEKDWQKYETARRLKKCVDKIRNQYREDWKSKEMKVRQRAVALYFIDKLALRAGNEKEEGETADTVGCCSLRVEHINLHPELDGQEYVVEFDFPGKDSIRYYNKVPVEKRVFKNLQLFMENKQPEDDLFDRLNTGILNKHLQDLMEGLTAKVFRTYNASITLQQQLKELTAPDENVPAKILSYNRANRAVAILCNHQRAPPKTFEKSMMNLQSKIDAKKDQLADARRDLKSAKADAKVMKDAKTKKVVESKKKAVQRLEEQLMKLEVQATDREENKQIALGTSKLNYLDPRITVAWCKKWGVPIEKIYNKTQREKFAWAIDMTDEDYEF
Experimental: as §1

Row | SMILES | topo I-DNA covalent complexes in DNA fractions after drug exposure (α-TopoI cc blot) [1] | α-TopoI cc staining intensity (average number of foci per cell or maximal mean fluorescence) ([2]; TPT 1 hour) | non-nucleolar staining of topo I-DNA complexes (double staining) ([2]; TPT versus untreated) | topo I-DNA covalent complex signal (slot blot probed with α-TopoI cc) [3] | total topo I signal at 100 kDa (SDS-PAGE, immunoblot) [3] | shift in α-TopoI cc staining intensity [4] | shift in α-TopoI cc staining intensity [5]
1 | COc1cc([C@@H]2c3cc4c(cc3[C@@H](O[C@@H]3O[C@@H]5CO[C@@H](C)O[C@H]5[C@H](O)[C@H]3O)[C@H]3COC(=O)[C@H]23)OCO4)cc(OC)c1O [etoposide] | failed to detect |  |  |  |  |  | 
2 | CC[C@@]1(O)C(=O)OCc2c1cc1n(c2=O)Cc2cc3c(CN(C)C)c(O)ccc3nc2-1 [TPT, Topotecan] | detected topo I that co-migrates with DNA | dose-dependent increase | dramatic increase in non-nucleolar staining of topo I-DNA complexes | corresponding increase in signal for topo I-DNA covalent complexes | graduated decrease in the topo I signal at 100 kDa | this shift was not observed | rightward shift was detectable
